Source: patent publication US10167262B2, “Herbicidal substituted 3-arylpyrazoles” (FMC CORPORATION, priority 2014, dated 2019)

Key:
Experiment in all cases: Test C pre-/postemergence greenhouse test, plant response rating 0-100;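 for Plant response rating (0 to 100), Blackgrass: 0 is no effect and 100 is complete control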;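 for Plant response rating (0 to 100), Ragweed: 0 is no effect and 100 is complete control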;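 for Plant response rating, Blackgrass: 0 is no effect and 100 is complete control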;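 for Plant response rating, Ragweed: 0 is no effect and 100 is complete control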
Assay type in all cases: in vivo
[1] = test system: Italian ryegrass (Lolium multiflorum)
Summary of the method: (§1)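 After treatment, pots stay in the greenhouse 13–15 days before each species is compared with untreated controls and given a 0–100 visual score. Preemergence seeds are in loam blended with sand; postemergence plants, 1–4 leaves, are in peat-based medium.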

[2] = test system: blackgrass (Alopecurus myosuroides);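 note: 0 is no effect and 100 is complete control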
Summary of the method: as §1

corn (Zea mays) = test system: corn (Zea mays)
Summary of the method: as §1

[3] = test system: giant foxtail (Setaria faberii)
Summary of the method: as §1

[4] = test system: johnsongrass (Sorghum halepense)
Summary of the method: as §1

[5] = test system: lambsquarters (Chenopodium album)
Summary of the method: as §1

[6] = test system: large (Lg) crabgrass (Digitaria sanguinalis)
Summary of the method: as §1

[7] = test system: pigweed (Amaranthus retroflexus)
Summary of the method: as §1

[8] = test system: ragweed (common ragweed, Ambrosia elatior);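 note: 0 is no effect and 100 is complete control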
Summary of the method: as §1

soybean (Glycine max) = test system: soybean (Glycine max)
Summary of the method: as §1

[9] = test system: velvetleaf (Abutilon theophrasti)
Summary of the method: as §1

[10] = test system: winter wheat (Triticum aestivum)
Summary of the method: as §1

[11] = test system: yellow nutsedge (Cyperus esculentus)
Summary of the method: as §1

[12] = Postemergence, 250 g ai/ha, scale 0 to 100
[13] = Postemergence, 125 g ai/ha, scale 0 to 100

O=C(c1cncc(F)c1)c1c[nH]nc1-c1cc(Cl)cc(Cl)c1 [Compound 19]
Plant response rating (0 to 100), Ryegrass, Italian ([1]; Postemergence, 62 g ai/ha): 0 | Plant response rating (0 to 100), Ryegrass, Italian ([1]; Postemergence, 125 g ai/ha): 0 | Plant response rating, Ryegrass, Italian [1, 12]: 5 | Plant response rating, Ryegrass, Italian ([1]; Preemergence, 62 g ai/ha): 0 | Plant response rating, Ryegrass, Italian ([1]; Preemergence, 125 g ai/ha): 0 | Plant response rating, Ryegrass, Italian ([1]; Preemergence, 250 g ai/ha): 10 | Plant response rating (0 to 100), Blackgrass ([2]; Postemergence, 31 g ai/ha): 0 | Plant response rating (0 to 100), Blackgrass ([2]; Postemergence, 62 g ai/ha): 0 | Plant response rating, Blackgrass [2, 13]: 0 | Plant response rating, Blackgrass [2, 12]: 0 | Plant response rating, Blackgrass ([2]; Preemergence, 31 g ai/ha): 10 | Plant response rating, Blackgrass ([2]; Preemergence, 62 g ai/ha): 0 | Plant response rating, Blackgrass ([2]; Preemergence, 125 g ai/ha): 0 | Plant response rating, Blackgrass ([2]; Preemergence, 250 g ai/ha): 50 | Plant response rating (0 to 100), Corn (corn (Zea mays); Postemergence, 31 g ai/ha): 0 | Plant response rating (0 to 100), Corn (corn (Zea mays); Postemergence, 62 g ai/ha): 0 | Plant response rating (0 to 100), Corn (corn (Zea mays); Postemergence, 125 g ai/ha): 0 | Plant response rating, Corn (corn (Zea mays); [12]): 0 | Plant response rating, Corn (corn (Zea mays); Preemergence, 31 g ai/ha): 0 | Plant response rating, Corn (corn (Zea mays); Preemergence, 62 g ai/ha): 0 | Plant response rating, Corn (corn (Zea mays); Preemergence, 125 g ai/ha): 0 | Plant response rating, Corn (corn (Zea mays); Preemergence, 250 g ai/ha): 0 | Plant response rating (0 to 100), Foxtail, Giant ([3]; Postemergence, 31 g ai/ha): 0 | Plant response rating (0 to 100), Foxtail, Giant ([3]; Postemergence, 62 g ai/ha): 0 | Plant response rating (0 to 100), Foxtail, Giant ([3]; Postemergence, 125 g ai/ha): 5 | Plant response rating, Foxtail, Giant [3, 12]: 5 | Plant response rating, Foxtail, Giant ([3]; Preemergence, 31 g ai/ha): 0 | Plant response rating, Foxtail, Giant ([3]; Preemergence, 62 g ai/ha): 0 | Plant response rating, Foxtail, Giant ([3]; Preemergence, 125 g ai/ha): 0 | Plant response rating, Foxtail, Giant ([3]; Preemergence, 250 g ai/ha): 0 | Plant response rating (0 to 100), Johnsongrass ([4]; Postemergence, 62 g ai/ha): 0 | Plant response rating (0 to 100), Johnsongrass ([4]; Postemergence, 125 g ai/ha): 0 | Plant response rating, Johnsongrass [4, 12]: 0 | Plant response rating, Johnsongrass ([4]; Preemergence, 31 g ai/ha): 0 | Plant response rating, Johnsongrass ([4]; Preemergence, 62 g ai/ha): 0 | Plant response rating, Johnsongrass ([4]; Preemergence, 125 g ai/ha): 0 | Plant response rating, Johnsongrass ([4]; Preemergence, 250 g ai/ha): 0 | Plant response rating (0 to 100), Lambsquarters ([5]; Postemergence, 62 g ai/ha): 10 | Plant response rating (0 to 100), Lambsquarters ([5]; Postemergence, 125 g ai/ha): 15 | Plant response rating, Lambsquarters [5, 12]: 10 | Plant response rating, Lambsquarters ([5]; Preemergence, 31 g ai/ha): 100 | Plant response rating, Lambsquarters ([5]; Preemergence, 62 g ai/ha): 100 | Plant response rating, Lambsquarters ([5]; Preemergence, 125 g ai/ha): 100 | Plant response rating, Lambsquarters ([5]; Preemergence, 250 g ai/ha): 100 | Plant response rating (0 to 100), Crabgrass, Large ([6]; Postemergence, 31 g ai/ha): 0 | Plant response rating (0 to 100), Crabgrass, Large ([6]; Postemergence, 62 g ai/ha): 0 | Plant response rating (0 to 100), Crabgrass, Large ([6]; Postemergence, 125 g ai/ha): 10 | Plant response rating, Crabgrass, Large [6, 12]: 10 | Plant response rating, Crabgrass, Large ([6]; Preemergence, 31 g ai/ha): 0 | Plant response rating, Crabgrass, Large ([6]; Preemergence, 62 g ai/ha): 0 | Plant response rating, Crabgrass, Large ([6]; Preemergence, 125 g ai/ha): 0 | Plant response rating, Crabgrass, Large ([6]; Preemergence, 250 g ai/ha): 0 | Plant response rating (0 to 100), Pigweed ([7]; Postemergence, 62 g ai/ha): 85 | Plant response rating (0 to 100), Pigweed ([7]; Postemergence, 125 g ai/ha): 90 | Plant response rating, Pigweed [7, 12]: 95 | Plant response rating, Pigweed ([7]; Preemergence, 31 g ai/ha): 75 | Plant response rating, Pigweed ([7]; Preemergence, 62 g ai/ha): 85 | Plant response rating, Pigweed ([7]; Preemergence, 125 g ai/ha): 100 | Plant response rating, Pigweed ([7]; Preemergence, 250 g ai/ha): 100 | Plant response rating (0 to 100), Ragweed ([8]; Postemergence, 62 g ai/ha): 70 | Plant response rating (0 to 100), Ragweed ([8]; Postemergence, 125 g ai/ha): 80 | Plant response rating, Ragweed [8, 12]: 90 | Plant response rating, Ragweed ([8]; Preemergence, 62 g ai/ha): 85 | Plant response rating, Ragweed ([8]; Preemergence, 125 g ai/ha): 100 | Plant response rating, Ragweed ([8]; Preemergence, 250 g ai/ha): 100 | Plant response rating (0 to 100), Soybean (soybean (Glycine max); Postemergence, 62 g ai/ha): 0 | Plant response rating (0 to 100), Soybean (soybean (Glycine max); Postemergence, 125 g ai/ha): 0 | Plant response rating, Soybean (soybean (Glycine max); [12]): 0 | Plant response rating, Soybean (soybean (Glycine max); Preemergence, 62 g ai/ha): 0 | Plant response rating, Soybean (soybean (Glycine max); Preemergence, 125 g ai/ha): 0 | Plant response rating, Soybean (soybean (Glycine max); Preemergence, 250 g ai/ha): 85 | Plant response rating (0 to 100), Velvetleaf ([9]; Postemergence, 62 g ai/ha): 25 | Plant response rating (0 to 100), Velvetleaf ([9]; Postemergence, 125 g ai/ha): 40 | Plant response rating, Velvetleaf [9, 12]: 55 | Plant response rating, Velvetleaf ([9]; Preemergence, 62 g ai/ha): 40 | Plant response rating, Velvetleaf ([9]; Preemergence, 125 g ai/ha): 75 | Plant response rating, Velvetleaf ([9]; Preemergence, 250 g ai/ha): 98 | Plant response rating (0 to 100), Wheat ([10]; Postemergence, 62 g ai/ha): 0 | Plant response rating (0 to 100), Wheat ([10]; Postemergence, 125 g ai/ha): 0 | Plant response rating, Wheat [10, 12]: 0 | Plant response rating, Wheat ([10]; Preemergence, 62 g ai/ha): 0 | Plant response rating, Wheat ([10]; Preemergence, 125 g ai/ha): 0 | Plant response rating, Wheat ([10]; Preemergence, 250 g ai/ha): 0 | Plant response rating (0 to 100), Nutsedge, Yellow ([11]; Postemergence, 62 g ai/ha): 5 | Plant response rating (0 to 100), Nutsedge, Yellow ([11]; Postemergence, 125 g ai/ha): 5 | Plant response rating, Nutsedge, Yellow [11, 12]: 5 | Plant response rating, Nutsedge, Yellow ([11]; Preemergence, 31 g ai/ha): 0 | Plant response rating, Nutsedge, Yellow ([11]; Preemergence, 62 g ai/ha): 0 | Plant response rating, Nutsedge, Yellow ([11]; Preemergence, 125 g ai/ha): 0 | Plant response rating, Nutsedge, Yellow ([11]; Preemergence, 250 g ai/ha): 0

Cn1cc(C(=NN2CCCC2)c2ccccc2)c(-c2cc(Cl)c(Cl)c(Cl)c2)n1 [Compound 25]
Plant response rating (0 to 100), Ryegrass, Italian ([1]; Postemergence, 62 g ai/ha): 0 | Plant response rating (0 to 100), Ryegrass, Italian ([1]; Postemergence, 125 g ai/ha): 0 | Plant response rating, Ryegrass, Italian [1, 12]: 5 | Plant response rating (0 to 100), Blackgrass ([2]; Postemergence, 31 g ai/ha): 0 | Plant response rating (0 to 100), Blackgrass ([2]; Postemergence, 62 g ai/ha): 0 | Plant response rating, Blackgrass [2, 13]: 0 | Plant response rating, Blackgrass [2, 12]: 5 | Plant response rating (0 to 100), Corn (corn (Zea mays); Postemergence, 31 g ai/ha): 0 | Plant response rating (0 to 100), Corn (corn (Zea mays); Postemergence, 62 g ai/ha): 0 | Plant response rating (0 to 100), Corn (corn (Zea mays); Postemergence, 125 g ai/ha): 0 | Plant response rating, Corn (corn (Zea mays); [12]): 0 | Plant response rating (0 to 100), Foxtail, Giant ([3]; Postemergence, 31 g ai/ha): 0 | Plant response rating (0 to 100), Foxtail, Giant ([3]; Postemergence, 62 g ai/ha): 0 | Plant response rating (0 to 100), Foxtail, Giant ([3]; Postemergence, 125 g ai/ha): 0 | Plant response rating, Foxtail, Giant [3, 12]: 0 | Plant response rating (0 to 100), Johnsongrass ([4]; Postemergence, 62 g ai/ha): 0 | Plant response rating (0 to 100), Johnsongrass ([4]; Postemergence, 125 g ai/ha): 0 | Plant response rating, Johnsongrass [4, 12]: 0 | Plant response rating (0 to 100), Lambsquarters ([5]; Postemergence, 62 g ai/ha): 0 | Plant response rating (0 to 100), Lambsquarters ([5]; Postemergence, 125 g ai/ha): 0 | Plant response rating, Lambsquarters [5, 12]: 20 | Plant response rating (0 to 100), Crabgrass, Large ([6]; Postemergence, 31 g ai/ha): 0 | Plant response rating (0 to 100), Crabgrass, Large ([6]; Postemergence, 62 g ai/ha): 0 | Plant response rating (0 to 100), Crabgrass, Large ([6]; Postemergence, 125 g ai/ha): 0 | Plant response rating, Crabgrass, Large [6, 12]: 0 | Plant response rating (0 to 100), Pigweed ([7]; Postemergence, 62 g ai/ha): 80 | Plant response rating (0 to 100), Pigweed ([7]; Postemergence, 125 g ai/ha): 98 | Plant response rating, Pigweed [7, 12]: 100 | Plant response rating (0 to 100), Ragweed ([8]; Postemergence, 62 g ai/ha): 0 | Plant response rating (0 to 100), Ragweed ([8]; Postemergence, 125 g ai/ha): 0 | Plant response rating, Ragweed [8, 12]: 0 | Plant response rating (0 to 100), Soybean (soybean (Glycine max); Postemergence, 62 g ai/ha): 0 | Plant response rating (0 to 100), Soybean (soybean (Glycine max); Postemergence, 125 g ai/ha): 0 | Plant response rating, Soybean (soybean (Glycine max); [12]): 10 | Plant response rating (0 to 100), Velvetleaf ([9]; Postemergence, 62 g ai/ha): 55 | Plant response rating (0 to 100), Velvetleaf ([9]; Postemergence, 125 g ai/ha): 65 | Plant response rating, Velvetleaf [9, 12]: 70 | Plant response rating (0 to 100), Wheat ([10]; Postemergence, 62 g ai/ha): 0 | Plant response rating (0 to 100), Wheat ([10]; Postemergence, 125 g ai/ha): 0 | Plant response rating, Wheat [10, 12]: 0 | Plant response rating (0 to 100), Nutsedge, Yellow ([11]; Postemergence, 62 g ai/ha): 0 | Plant response rating (0 to 100), Nutsedge, Yellow ([11]; Postemergence, 125 g ai/ha): 0 | Plant response rating, Nutsedge, Yellow [11, 12]: 0
